Measurements taken from patent US6159959A, “Combined estrogen and antiestrogen therapy” (American Home Products Corporation, priority 1999, dated 2000).

How the values were obtained:
human estrogen receptor = biological target: T1, human estrogen receptor (Homo sapiens, UniProt P03372); test: 2× VIT ERE Infection Assay (infection luciferase activity); format: cell-based; details: 24 h, read-out: Infection Luciferase Activity, 1 uM
T1 construct: expressed in transfected cells; host or cells: CHO (Chinese Hamster Ovary) cells, stably transfected
Protocol: 48 h prior to treatment the growth medium was replaced with DMEM lacking phenol red+10% dextran coated charcoal stripped FBS (treatment medium).
Reporter DNA (Promega plasmid pGL2 containing two tandem copies of the vitellogenin ERE in front of the minimal thymidine kinase promoter driving the luciferase gene) was combined with the B-galactosidase expression plasmid pCH110 (Pharmacia) and carrier DNA (pTZ18U) in the following ratio:
20 uL of this mixture was added to each well of cells and remained on the cells for 16 h. […] Each treatment condition was performed on 8 wells (n=8) which were incubated for 24 h prior to the luciferase assay.
After 24 h exposure to compounds, the media was removed and each well washed 2× with 125 uL of PBS lacking Mg^++ and Ca^++. After removing the PBS, 25 uL of Promega lysis buffer was added to each well and allowed to stand at room temperature for 15 min, followed by 15 min at -80° C. and 15 min at 37° C.
The luciferan substrate (Promega) was added in 100 uL aliquots to each well automatically by the luminometer and the light produced (relative light units) was read 10 seconds after addition.
To the remaining 5 uL of lysate 45 uL of PBS was added. Then 50 uL of Promega B-galactosidase 2× assay buffer was added, mixed well and incubated at 37° C. for 1 hour. A plate containing a standard curve (0.1 to 1.5 milliunits in triplicate) was set up for each experimental run. The plates were analyzed on a Molecular Devices spectrophotometric plate reader at 410 nm. The optical densities for the unknown were converted to milliunits of activity by mathematical extrapolation from the standard curve.
The luciferase data was generated as relative light units (RLUs) accumulated during a 10 second measurement and automatically transferred to a JMP (SAS Inc) file where background RLUs were subtracted. The B-galactosidase values were automatically imported into the file and these values were divided into the RLUs to normalize the data. The mean and standard deviations were determined from a n=8 for each treatment.

estrogen receptor = biological target: T2, estrogen receptor (Homo sapiens, UniProt P03372); test: In vitro Estrogen Receptor Binding Assay (competition with [3H]-17β-estradiol); details: compared with indenoindole #6
T2 construct: expressed in transfected cells; host or cells: CHO cells overexpressing the receptor; cytosol (100,000 g supernatant)
T2 sequence (P03372 1-595): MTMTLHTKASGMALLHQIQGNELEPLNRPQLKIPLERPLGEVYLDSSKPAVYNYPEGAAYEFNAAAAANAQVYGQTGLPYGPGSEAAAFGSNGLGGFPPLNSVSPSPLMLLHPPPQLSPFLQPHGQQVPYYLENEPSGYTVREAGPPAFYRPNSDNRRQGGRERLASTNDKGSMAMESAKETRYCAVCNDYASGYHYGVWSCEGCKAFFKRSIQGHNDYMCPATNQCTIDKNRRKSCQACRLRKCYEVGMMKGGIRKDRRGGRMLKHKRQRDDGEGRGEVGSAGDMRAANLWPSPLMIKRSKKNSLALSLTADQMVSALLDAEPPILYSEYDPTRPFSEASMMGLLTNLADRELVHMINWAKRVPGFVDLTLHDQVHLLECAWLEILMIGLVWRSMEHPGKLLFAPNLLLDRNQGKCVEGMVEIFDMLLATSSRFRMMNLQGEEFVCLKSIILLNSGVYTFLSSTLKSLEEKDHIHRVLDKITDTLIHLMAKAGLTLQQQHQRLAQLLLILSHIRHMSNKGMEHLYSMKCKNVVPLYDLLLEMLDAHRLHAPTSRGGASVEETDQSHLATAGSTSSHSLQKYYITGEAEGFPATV
Protocol: CHO cells overexpressing the estrogen receptor were grown in 150 mm^2 dishes in DMEM+10% dextran coated charcoal, stripped fetal bovine serum. The plates were washed twice with PBS and once with 10 mM Tris-HCl, pH 7.4, 1 mM EDTA. Cells were harvested by scraping the surface and then the cell suspension was placed on ice. Cells were disrupted with a hand-held motorized tissue grinder using two, 10-second bursts. The crude preparation was centrifuged at 12,000 g for 20 minutes followed by a 60 minute spin at 100,000 g to produce a ribosome free cytosol. The cytosol was then frozen and stored at -80° C. […]
The competition assay was performed in a 96-well plate (polystyrene*) which binds <2.0% of the total input [^3 H]-17β-estradiol and each data point was gathered in triplicate. […] Samples were counted to 2% or 10 minutes, whichever occurs first. […] 17βestradiol, wells containing radioactivity and cytosol, but not processed with charcoal were included to quantitate amounts of available isotope. Also, wells containing radioactivity but no cytosol were processed with charcoal to estimate unremovable DPM of [^3 H] […]
Counts per minute (CPM) of radioactivity were automatically converted to disintegrated per minute (DPM) by the Beckman LS 7500 Scintillation Counter using a set of quenched standards to generate a H# for each sample. […]

ovariectomized rat = details: cited from earlier work
bone = details: in humans; cited from earlier work
uterus = details: in vivo; cited from earlier work

| SMILES | activation at 1 µM (human estrogen receptor) | bind to the ER receptor (comparison in words) (estrogen receptor) | other results |
| --- | --- | --- | --- |
| COc1ccc2c(c1)Cc1c-2n(Cc2ccc(OCCN3CCCCC3)cc2)c2ccc(O)cc12 [Cmpd. 6, 2-Methoxy-5-[4-(2-piperidin-1-yl-ethoxy)-benzyl]-5,10-dihydro-indeno[1,2-b]indol-8ol] | -2% |  |  |
| COc1ccc2c(c1)CCc1c-2n(Cc2ccc(OCCN3CCCCC3)cc2)c2ccc(O)cc12 [Cmpd. 21, 3-Methoxy-11-[4-(2-piperidin-1-yl-ethoxy)-benzyl]-5,11-dihydro-6H-benzo[a]carbazol-8-ol] | -7% | bind better to the ER receptor than the indenoindole #6 |  |
| COc1ccc2c(c1)CCc1c-2n(Cc2ccc(OCCN3CCCCCC3)cc2)c2ccc(O)cc12 [Cmpd. 22, 11-[4-(2-Azepan-1-yl-ethoxy)-benzyl]-3-methoxy-5,11-dihydro-6H-benzo[a]carbazol-8-ol] | 1% | bind better to the ER receptor than the indenoindole #6 |  |
| O=C(c1ccc(OCCN2CCCCC2)cc1)c1c(-c2ccc(O)cc2)sc2cc(O)ccc12 [Raloxifene] |  |  | ability to spare bone (ovariectomized rat): maintaining the ability to spare bone; stimulation of uterine growth (ovariectomized rat; compared with Tamoxifen): stimulate uterine growth in the ovariectomized rat to a lesser extent than Tamoxifen |
| CC/C(=C(\c1ccccc1)c1ccc(OCCN(C)C)cc1)c1ccccc1 [Tamoxifen] |  |  | effect on the bone (bone): estrogen agonist-like effect on the bone; agonism in the uterus (uterus): partial agonist in the uterus |
